The values that follow come from patent US20230077723A1, “N-SUBSTITUTED-3,4-(FUSED 5-RING)-5-PHENYL-PYRROLIDINE-2-ONE COMPOUNDS AS INHIBITORS OF ISOQC AND/OR QC ENZYME” (Scenic Immunology B.V., priority 2019, published 2023).

One assay relates to pyroglutamylated CD47 (pE-CD47) in KBM7 cells. Put plainly: Assay 6 - cell-based potency assay (pE-CD47 CC2C6 staining vs total CD47). The conditions noted are these: 72 hours, CC2C6 signal, read-out: Cell Pot. Assay No. 6. Set-up: species or system human. The method, then:
Cells were spun for 4 minutes at 1500 rpm and washed once with PBS/0.5% BSA. Cells were spun down again and the supernatant was removed and incubated in 100 uL antibody staining solution (PBS/0.5% BSA/0.1 μg/mL DAPI (4′,6-diamidino-2-phenylindole, ThermoFisher Scientific) and a mixture of 1:500 FITC-conjugated anti-human CD47 clone 2D3, which recognizes total CD47 irrespective of its pyroglutamylation state, and 1:500 Alexa647-conjugated anti-human CD47 clone CC2C6, which specifically detects pyroglutamylated CD47) for 2 hours at 4° C. Next, the cells were spun down and washed twice with 2×150 μL PBS/0.5% BSA to remove unbound antibody. Cells were again spun down and taken up in 300 μL FACS buffer before analysis on a Celesta FACS machine (BD Biosciences).
KBM7 cells (Kotecki et al., 1999) were infected with lentivirus produced by transfecting pSCNC-LentiCRISPR-QPCTL or pSCNC-LentiCRISPR-CD47 into HEK-293T cells according to standard protocols. After 24 hours incubation, cells were selected with puromycin (Invivogen, 1 μg/mL) for 48 hours. Cells were stained for total CD47 and pE-CD47 and QPCTL k.o. cells were sorted out as negative for pE-CD47, and CD47 k.o. cells as negative for total CD47, using a FACSAria III and FACS Diva software (BD Biosciences).
In order to test compounds for their effect on pyroglutamylation in live cells, 25000 KBM7 cells per well were seeded in a 96-well U-bottom plate in 150 μl IMDM/10% FCS/1% Pen/Strep medium and a 10-point 2-fold dilution range of test compounds. After 72 hours incubation at 37° C., 5% CO2, cells were stained for total CD47 and pE-CD47 and analyzed on a BD Celesta using FACS Diva software (BD Biosciences). Cells gated for DAPI negativity were recorded and the median fluorescence intensity (MFI) of each sample was transformed to linearly scale between the MFI's of wildtype and CD47 knockout cells (in case of the 2D3 antibody) and the wildtype and QPCTL knockout cells (in case of the CC2C6 antibody). IC50's were calculated by 3 parameter logistic regression of the CC2C6 signal vs. compound concentration, where the top of the sigmoidal curve was fixed at 1, using R and the drc package (http://www.r-project.org, https://cran.r-project.org/web/packages/drc/index.html).
Regarding `Cc1[nH]nc2c1C(c1ccc(N3CCC(F)(F)C3)cc1F)N(c1ccc3[nH]cnc3c1)C2=O` (centres unmarked) [FRPPO-126C], the IC50 was under 1000 nM.

The same assay, now with this note: Homo sapiens, KBM-7, 72 h, CC2C6 signal, read-out: Cell Pot. Assay No. 6.
Take `Cc1c2c(nn1C)C(=O)N(c1ccc3[nH]cnc3c1)C2c1ccc(N2CCC(F)C2)cc1F` (centres unmarked) [FRPPO-073]: the IC50 lay within 1000 to 5000 nM.
Regarding `Cc1c2c(nn1C)C(=O)N(c1ccc3[nH]cnc3c1)C2c1ccc(N2CC3CC(C2)O3)cc1F` (centres unmarked) [FRPPO-077], the IC50 was in the range of 1000 to 5000 nM.
As to `Cc1c2c(nn1C)C(=O)N(c1ccc3[nH]cnc3c1)C2c1ccc(N2CCOCC2)cc1F` (centres unmarked) [FRPPO-078], the IC50 is under 1000 nM.
Still for that read-out and setting: next, `Cc1c2c(nn1C)C(=O)N(c1ccc3[nH]cnc3c1)C2c1ccc(N2CCC23COC3)cc1F` (centres unmarked) [FRPPO-079]: 1000 to 5000 nM; `Cc1c2c(nn1C)C(=O)N(c1ccc3[nH]cnc3c1)C2c1ccc(N2CC3CC2CO3)cc1F` (centres unmarked) [FRPPO-081]: 1000 to 5000 nM.
As to `Cc1c2c(nn1C)C(=O)N(c1ccc3[nH]cnc3c1)C2c1ccc(N2CCNC(C)C2)cc1F` (centres unmarked) [FRPPO-082], the IC50 fell in the range of 5000 to 50000 nM.
Consider `Cc1c2c(nn1C)C(=O)N(c1ccc3[nH]cnc3c1)C2c1ccc(N2CCN(C)CC2)cc1F` (centres unmarked) [FRPPO-083], for which the IC50 lay in the range of 1000 to 5000 nM.
Regarding `Cc1c2c(nn1C)C(=O)N(c1ccc3[nH]cnc3c1)C2c1ccc(N2CCC(O)CC2)cc1F` (centres unmarked) [FRPPO-085], the IC50 lay in the range of 5000 to 50000 nM.
Same read-out and setting: next, `Cc1c2c(nn1C)C(=O)N(c1ccc3[nH]cnc3c1)C2c1ccc(N2CCCC(O)C2)cc1F` (centres unmarked) [FRPPO-086]: 1000 to 5000 nM; `Cc1c2c(nn1C)C(=O)N(c1ccc3[nH]cnc3c1)C2c1ccc(N2CC(O)C(F)C2)cc1F` (centres unmarked) [FRPPO-089]: 1000 to 5000 nM; `Cc1c2c(nn1C)C(=O)N(c1ccc3[nH]cnc3c1)C2c1ccc(NCCC(F)(F)F)cc1F` (centres unmarked) [FRPPO-092]: under 1000 nM.
With `Cc1c2c(nn1C)C(=O)N(c1ccc3[nH]cnc3c1)C2c1ccc(N2C3CCC2COC3)cc1F` (centres unmarked) [FRPPO-093], the IC50 was 1000 to 5000 nM.
Regarding `Cc1c2c(nn1C)C(=O)N(c1ccc3[nH]cnc3c1)C2c1ccc(N2CC3(CCOC3)C2)cc1F` (centres unmarked) [FRPPO-095], the IC50 lay within 1000 to 5000 nM.
As to `Cc1c2c(nn1C)C(=O)N(c1ccc3[nH]cnc3c1)C2c1ccc(N2CC3CCC(C2)O3)cc1F` (centres unmarked) [FRPPO-096], the IC50 is under 1000 nM.
The same measure, in the same setting: for `Cc1c2c(nn1C)C(=O)N(c1ccc3[nH]cnc3c1)C2c1ccc(N2CCC3(COC3)C2)cc1F` (centres unmarked) [FRPPO-097] the value was under 1000 nM.
Take `Cc1c2c(nn1C)C(=O)N(c1ccc3[nH]cnc3c1)C2c1ccc(N2CC(C)NC(C)C2)cc1F` (centres unmarked) [FRPPO-100]: the IC50 is 5000 to 50000 nM.
On to `Cc1c2c(nn1C)C(=O)N(c1ccc3[nH]cnc3c1)C2c1ccc(N2CCC3(CCOC3)C2)cc1F` (centres unmarked) [FRPPO-104], for which the IC50 is under 1000 nM.
Still for that read-out and setting: for `Cc1c2c(nn1C)C(=O)N(c1ccc3[nH]cnc3c1)C2c1ccc(N2CCS(=O)(=O)CC2)cc1F` (centres unmarked) [FRPPO-105] the value was 5000 to 50000 nM; for `COC(=O)N1CCN(c2ccc(C3c4c(nn(C)c4C)C(=O)N3c3ccc4[nH]cnc4c3)c(F)c2)CC1` (centres unmarked) [FRPPO-107], 1000 to 5000 nM.
The same measure, in the same setting: next, `Cc1c2c(nn1C)C(=O)N(c1ccc3[nH]cnc3c1)C2c1ccc(N2CCOC(C(F)(F)F)C2)cc1F` (centres unmarked) [FRPPO-109]: under 1000 nM; `Cc1c2c(nn1C)C(=O)N(c1ccc3[nH]cnc3c1)C2c1ccc(N2CCN(S(C)(=O)=O)CC2)cc1F` (centres unmarked) [FRPPO-111]: 1000 to 5000 nM.
For `Cc1c2c(nn1C)C(=O)N(c1ccc3[nH]cnc3c1)C2c1ccc(N2CCOC[C@@H]2C)cc1F` (some centres unmarked) [FRPPO-113A], the IC50 is under 1000 nM.
Consider `Cc1c2c(nn1C)C(=O)N(c1ccc3[nH]cnc3c1)C2c1ccc(N2CCOC[C@H]2C)cc1F` (some centres unmarked) [FRPPO-113B], for which the IC50 was under 1000 nM.
Still for that read-out and setting: for `Cc1c2c(nn1C)C(=O)N(c1ccc3[nH]cnc3c1)C2c1ccc(N2CCO[C@@H](C)C2)cc1F` (some centres unmarked) [FRPPO-114A] the value was under 1000 nM.
For the molecule `Cc1c2c(nn1C)C(=O)N(c1ccc3[nH]cnc3c1)C2c1ccc(N2CCC[C@H]2C)cc1F` (some centres unmarked) [FRPPO-115A], the IC50 is under 1000 nM.
`Cc1[nH]nc2c1C(c1ccc(N3CCC(F)(F)C3)cc1F)N(c1ccc3[nH]cnc3c1)C2=O` (centres unmarked) [FRPPO-126B]: the IC50 was 1000 to 5000 nM.
As for `Cc1c2c(nn1C1CC1)C(=O)N(c1ccc3[nH]cnc3c1)C2c1ccc(N2CCC(F)(F)C2)cc1F` (centres unmarked) [FRPPO-127B], the IC50 is under 1000 nM.
As to `Cc1c2c(nn1C1CC1)C(=O)N(c1ccc3[nH]cnc3c1)C2c1ccc(N2CCC(C(F)(F)F)CC2)cc1F` (centres unmarked) [FRPPO-136], the IC50 is under 1000 nM.
With `Cc1c2c(nn1C1CC1)C(=O)N(c1ccc3[nH]cnc3c1)C2c1ccc(N2CCC(F)(F)CC2)cc1F` (centres unmarked) [FRPPO-137], the IC50 is under 1000 nM.
Consider `Cc1c2c(nn1C)C(=O)N(c1ccc3[nH]cnc3c1)C2c1ccc(-c2ccc(OC(F)(F)F)nc2)cc1F` (centres unmarked) [FRPPO-142A], for which the IC50 was under 1000 nM.
Turning to `Cc1c2c(nn1C)C(=O)N(c1ccc3[nH]cnc3c1)C2c1ccc(-c2cnc(C(F)(F)F)s2)cc1F` (centres unmarked) [FRPPO-144], the IC50 is under 1000 nM.
Regarding `Cc1[nH]nc2c1C(c1ccc(-c3cnc(C(F)(F)F)s3)cc1F)N(c1ccc3[nH]cnc3c1)C2=O` (centres unmarked) [FRPPO-145], the IC50 is under 1000 nM.
Take `Cc1c2c(nn1C)C(=O)N(c1ccc3[nH]cnc3c1)C2c1ccc(-c2csc(C(F)(F)F)n2)cc1F` (centres unmarked) [FRPPO-146]: the IC50 was under 1000 nM.
In the case of `Cc1[nH]nc2c1C(c1ccc(-c3csc(C(F)(F)F)n3)cc1F)N(c1ccc3[nH]cnc3c1)C2=O` (centres unmarked) [FRPPO-147], the IC50 is under 1000 nM.
The same measure, in the same setting: for `Cc1c2c(nn1C)C(=O)N(c1ccc3[nH]cnc3c1)C2c1ccc(-n2cc(C(F)(F)F)cn2)cc1F` (centres unmarked) [FRPPO-150A] the value was under 1000 nM; for `CC(C)c1c2c(nn1C)C(=O)N(c1ccc3[nH]cnc3c1)C2c1ccc(N2CCC(F)(F)C2)cc1F` (centres unmarked) [FRPPO-152A], under 1000 nM.
`CC(C)c1[nH]nc2c1C(c1ccc(N3CCC(F)(F)C3)cc1F)N(c1ccc3[nH]cnc3c1)C2=O` (centres unmarked) [FRPPO-153]: the IC50 is under 1000 nM.
Same read-out and setting: next, `Cc1c2c(nn1C)C(=O)N(c1ccc3[nH]cnc3c1)C2c1ccc(N2CCC(F)(F)C2)c(F)c1F` (centres unmarked) [FRPPO-154]: under 1000 nM; `Cc1c2c(nn1C)C(=O)N(c1ccc3[nH]cnc3c1)C2c1cccc(C2CCN(C)CC2)c1F` (centres unmarked) [FRPPO-155]: 5000 to 50000 nM; `CC(O)c1c2c(nn1C)C(=O)N(c1ccc3[nH]cnc3c1)C2c1ccc(N2CCC(F)(F)C2)cc1F` (centres unmarked) [FRPPO-156]: under 1000 nM.
For `Cn1nc2c(c1CO)C(c1ccc(N3CCC(F)(F)C3)cc1F)N(c1ccc3[nH]cnc3c1)C2=O` (centres unmarked) [FRPPO-157], the IC50 was under 1000 nM.
The same measure, in the same setting: next, `Cc1nn(C)c2c1C(c1ccc(OCCC(F)F)c(F)c1F)N(c1ccc3[nH]cnc3c1)C2=O` (centres unmarked) [FRPPO-167]: 1000 to 5000 nM; `Cn1nc(C2CC2)c2c1C(=O)N(c1ccc3[nH]cnc3c1)C2c1ccc(N2CCC(F)(F)C2)cc1` (centres unmarked) [FRPPO-168]: 1000 to 5000 nM.
Regarding `Cc1nn(C)c2c1C(c1ccc(N3CCC(F)(F)C3)c(F)c1F)N(c1ccc3[nH]cnc3c1)C2=O` (centres unmarked) [FRPPO-169], the IC50 was 1000 to 5000 nM.
On the same count and under the same terms, for `Cc1nn(C)c2c1C(c1ccc(N3CCC(F)(F)C3)cc1F)N(c1ccc3[nH]cnc3c1)C2=O` (centres unmarked) [FRPPO-170] the value was 1000 to 5000 nM; for `Cc1nn(C)c2c1C(c1ccc(-n3cc(C(F)(F)F)cn3)cc1)N(c1ccc3[nH]cnc3c1)C2=O` (centres unmarked) [FRPPO-174], 1000 to 5000 nM.
On to `Cc1nn(C)c2c1C(c1ccc(-c3cnn(C(F)(F)F)c3)cc1)N(c1ccc3[nH]cnc3c1)C2=O` (centres unmarked) [FRPPO-175], for which the IC50 was under 1000 nM.
For `Cc1c2c(nn1C)C(=O)N(c1ccn3ccnc3c1)C2c1ccc(N2CCOC(C)C2)cc1F` (centres unmarked) [FRPPO-197], the IC50 is under 1000 nM.
Regarding `Cc1[nH]nc2c1C(c1ccc(-n3cc(C(F)(F)F)cn3)cc1F)N(c1ccn3ccnc3c1)C2=O` (centres unmarked) [FRPPO-198], the IC50 is under 1000 nM.
